According to PubChem BioAssay (NCI):
Values joined by “and” are separate entries in the source; they are usually repeats but may differ in a detail not shown here. Equal entries are not always repeated.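 48-hour exposure; five concentrations; linearly interpolated endpoints. GI50: concentration for 50% inhibition of growth. TGI: total growth inhibition.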

Key:
Assay in all cases: growth of human tumour cells (NCI), 48 h
[1] = test system: DMS 114 small cell lung
[2] = test system: HCT-116 colon
[3] = test system: HCT-15 colon
[4] = test system: HOP-92 NSCLC
[5] = test system: K-562 leukemia
[6] = test system: KM20L2 colon
[7] = test system: M14 melanoma
[8] = test system: SN12C renal
[9] = test system: SW-620 colon
[10] = test system: UACC-62 melanoma
[11] = test system: T-47D breast

CC(=O)OCc1c(O)c2c(c(O)c1COC(C)=O)C(=O)C=CC2=O
TGI [1]: 25.4 µM | TGI [2]: 25.6 µM | TGI [3]: 38.1 µM | TGI [4]: 7.24 µM | TGI [5]: > 100 µM | TGI [6]: 32.7 µM | TGI [7]: 23.7 µM | TGI [8]: 24.2 µM | TGI [9]: 14.3 µM | TGI [10]: 19.3 µM

CCOC(=O)/C(O)=C1\C(=O)N(C)C(=O)C1c1cccc(OC)c1 (stereo not given)
TGI [1]: > 100 µM | TGI [2]: > 100 µM | TGI [3]: > 100 µM | TGI [4]: > 100 µM | TGI [5]: > 100 µM | TGI [6]: > 100 µM | TGI [8]: > 100 µM | TGI [9]: > 100 µM | TGI [10]: > 100 µM

CN(C)CCNC(=O)c1cccc2nc(-c3ccccc3)oc12
TGI [1]: > 100 µM | TGI [2]: > 100 µM | TGI [3]: > 100 µM | TGI [4]: 59.4 µM | TGI [5]: > 100 µM | TGI [6]: > 100 µM | TGI [8]: > 100 µM | TGI [9]: > 100 µM | TGI [10]: > 100 µM

CCCSc1nc(-c2ccc(OC)cc2)c(C#N)c(=O)n1C1OC(COC(C)=O)C(OC(C)=O)C(OC(C)=O)C1OC(C)=O (stereo not given)
TGI [1]: > 100 µM | GI50 [2]: > 100 µM | TGI [2]: > 100 µM | GI50 [4]: > 100000 nM and 28200 nM | TGI [4]: > 100 µM and 93.7 µM | TGI [5]: > 100 µM | TGI [6]: > 100 µM | GI50 [7]: > 100 µM and 23.1 µM | TGI [7]: > 100 µM and 50.2 µM | TGI [10]: > 100 µM

C=C(CN(C)C)C(=O)c1ccccc1[N+](=O)[O-]
TGI [1]: 39.1 µM | GI50 [2]: 7.18 µM | TGI [2]: 31.6 µM and 38.3 µM | GI50 [3]: 3.34 µM | TGI [3]: 27 µM and 12.6 µM | GI50 [4]: 2110 nM | TGI [4]: 18.5 µM and 5.11 µM | GI50 [5]: 3.38 µM | TGI [5]: 27.7 µM and 12.9 µM | TGI [6]: > 54.2 µM | GI50 [7]: 6.42 µM | TGI [7]: 29.6 µM | GI50 [8]: 3.74 µM | TGI [8]: 32.6 µM and 24.7 µM | TGI [9]: 31.3 µM | GI50 [11]: 5.68 µM | TGI [11]: 18.6 µM and 28.6 µM | GI50 [10]: 13.1 µM | TGI [10]: 32.9 µM and 31.1 µM

CN(C)CC1CCC(CN(C)C)C1=O (stereo not given)
TGI [1]: 11.8 µM | TGI [2]: 5.23 µM | TGI [3]: 4.82 µM | GI50 [4]: 1930 nM | TGI [4]: 4.07 µM | TGI [5]: > 20.3 µM | TGI [6]: 38 µM | TGI [7]: 7.38 µM | TGI [8]: 13.4 µM | TGI [9]: 10.4 µM | TGI [11]: 3.48 µM | TGI [10]: 27.2 µM

S=c1cc(-c2ccc3c(c2)OCO3)s[nH]1
TGI [2]: > 100 µM | TGI [3]: > 100 µM | TGI [4]: > 100 µM | TGI [5]: > 100 µM | TGI [7]: > 100 µM | TGI [8]: > 100 µM | TGI [9]: > 100 µM | TGI [11]: > 100 µM | TGI [10]: > 100 µM

C[n+]1c(-c2ccc(/C=C/C=N\NC(=O)c3ccc(C(=O)N/N=C\C=C\c4ccc(-c5cn6ccccc6[n+]5C)cc4)cc3)cc2)cn2ccccc21
TGI [2]: > 100 µM | TGI [3]: > 100 µM | TGI [4]: > 100 µM | TGI [5]: > 51.2 µM | TGI [7]: > 100 µM | TGI [8]: > 100 µM | TGI [9]: > 100 µM | TGI [11]: > 80.2 µM | TGI [10]: > 100 µM

CN(C)CCC(=O)/C=C\c1ccccc1
TGI [1]: 33.7 µM | TGI [2]: 28.7 µM | TGI [3]: 30.9 µM | TGI [4]: 32.9 µM | TGI [5]: 36.8 µM | TGI [6]: 86.1 µM | TGI [7]: 30.4 µM | TGI [8]: 30.7 µM | TGI [9]: 35.8 µM | TGI [10]: 31.3 µM

COc1cc(/C=C/C=C2\CC/C(=C\C=C\c3ccc(O)c(OC)c3)C2=O)ccc1O
TGI [2]: > 100 µM | TGI [3]: > 100 µM | TGI [4]: > 100 µM | TGI [5]: 52.7 µM | TGI [7]: > 100 µM | TGI [8]: > 100 µM | TGI [9]: > 100 µM | TGI [11]: > 100 µM | TGI [10]: > 100 µM

O=C1CSC2=NC3=C(COC/C3=C\c3ccc(Br)cc3)C(c3ccc(Br)cc3)N12 (stereo not given)
TGI [2]: > 100 µM | TGI [3]: > 100 µM | TGI [4]: > 100 µM | TGI [5]: > 100 µM | TGI [7]: 94.6 µM | TGI [8]: > 100 µM | TGI [9]: > 100 µM | TGI [11]: > 100 µM | TGI [10]: > 100 µM

Cc1ccc(/C=C2\Cc3c(C)cc(C)cc3C2=O)c(C(=O)O)c1
TGI [2]: > 100 µM | TGI [3]: > 100 µM | TGI [4]: > 100 µM | TGI [5]: > 100 µM | TGI [7]: > 100 µM | TGI [8]: > 100 µM | TGI [9]: > 100 µM | TGI [11]: > 100 µM | TGI [10]: > 100 µM

CCOC(=O)C#Cc1ccccc1
TGI [2]: 17.7 µM | TGI [3]: > 100 µM | TGI [4]: 36.9 µM | TGI [5]: 8.91 µM | TGI [7]: 39.1 µM | TGI [8]: 80.1 µM | TGI [9]: 31.2 µM | TGI [11]: > 100 µM | TGI [10]: 32.5 µM

CC(=O)c1ccc2c(c1)CC1(C2)Cc2ccccc2C1=O (stereo not given)
TGI [2]: > 100 µM | TGI [3]: > 100 µM | TGI [4]: 95.9 µM | TGI [5]: > 100 µM | TGI [7]: > 100 µM | TGI [8]: > 100 µM | TGI [9]: > 100 µM | TGI [11]: > 100 µM | TGI [10]: > 100 µM

COC(=O)c1cc(C#N)[nH]c1-c1cc(Br)cs1
TGI [2]: 28.3 µM | TGI [3]: 33.2 µM | TGI [4]: 19.1 µM | TGI [5]: > 79.9 µM | TGI [7]: 27.7 µM | TGI [8]: 32.3 µM | TGI [9]: 40.2 µM | TGI [11]: 12.8 µM | TGI [10]: 38.4 µM

Oc1[nH]c2ccccc2c1N=NC(=S)Nc1ccc(Cl)cc1
TGI [2]: > 100 µM | TGI [3]: > 100 µM | TGI [4]: > 100 µM | TGI [5]: > 100 µM | TGI [7]: 45.2 µM | TGI [8]: > 100 µM | TGI [9]: > 100 µM | TGI [11]: > 100 µM | TGI [10]: > 100 µM

C[C@]12CC[C@@H]3c4cc(I)c(O)cc4CC[C@H]3[C@@H]1CC[C@@H]2O
GI50 [2]: 5.01 µM | TGI [2]: 16.5 µM | TGI [3]: 8.78 µM | TGI [4]: 26.3 µM | TGI [5]: 24.2 µM | TGI [7]: 17.4 µM | GI50 [8]: 6.66 µM | TGI [8]: 22.2 µM | TGI [9]: 13.5 µM | TGI [11]: 37.4 µM | GI50 [10]: 3.63 µM | TGI [10]: 14.5 µM

CCOC(=O)C1CCC(=O)N1C(=O)c1ccccc1 (stereo not given)
TGI [2]: > 100 µM | TGI [3]: > 100 µM | TGI [4]: > 100 µM | TGI [5]: > 100 µM | TGI [7]: > 100 µM | TGI [8]: > 100 µM | TGI [9]: > 100 µM | TGI [11]: > 100 µM | TGI [10]: > 100 µM

COc1ccc(CN2C3CC2CN(c2ccc(-c4cc(OCC(C)(C)O)cn5ncc(C#N)c45)cn2)C3)cn1
GI50 [2]: 8.06 µM | TGI [2]: > 100 µM | GI50 [3]: 37.2 µM | TGI [3]: > 100 µM | GI50 [4]: 2120 nM | TGI [4]: 7.35 µM | GI50 [5]: > 100 µM | TGI [5]: > 100 µM | GI50 [7]: 24.2 µM | TGI [7]: > 100 µM | GI50 [8]: 2.95 µM | TGI [8]: > 100 µM | GI50 [9]: 4.49 µM | TGI [9]: > 100 µM | GI50 [11]: 9.02 µM | TGI [11]: > 100 µM | GI50 [10]: > 100 µM | TGI [10]: > 100 µM

COc1cc(NC(C)=O)ccc1C(=O)NN1C(=O)/C(=C/c2ccco2)N=C1c1ccccc1
TGI [2]: > 50 µM | TGI [3]: > 50 µM | TGI [4]: > 50 µM | TGI [5]: > 50 µM | TGI [7]: > 50 µM | TGI [8]: > 50 µM | TGI [9]: > 50 µM | TGI [11]: > 50 µM | TGI [10]: > 50 µM

CC(C)OC(=O)OCSc1ccccc1N=Cc1cccc([N+](=O)[O-])c1
TGI [2]: > 10 µM | TGI [3]: > 10 µM | TGI [4]: > 10 µM | TGI [5]: > 10 µM | TGI [7]: > 10 µM | TGI [8]: > 10 µM | TGI [9]: > 10 µM | TGI [11]: > 10 µM | TGI [10]: > 10 µM

COc1cc2ccc1OCc1cccc(n1)COc1ccc(cc1OC)C=Nc1ccc(cc1)N=C2
TGI [2]: > 100 µM | TGI [3]: > 100 µM | TGI [4]: > 100 µM | TGI [5]: > 100 µM | TGI [7]: > 100 µM | TGI [8]: > 100 µM | TGI [9]: > 100 µM | TGI [11]: > 100 µM | TGI [10]: > 100 µM

COc1cc2c(c(O)c1OC)C(=O)C(Cc1ccc(O)cc1)CO2 (stereo not given)
TGI [2]: > 100 µM | TGI [3]: > 100 µM | TGI [4]: > 100 µM | TGI [5]: > 100 µM | TGI [7]: 84 µM | TGI [8]: > 100 µM | TGI [9]: > 100 µM | TGI [11]: 69.6 µM | TGI [10]: > 100 µM
